SMILES strings stand for the structures.

One experiment addresses FGFR4 (Homo sapiens, UniProt P22455). Description: FGFR inhibition assay (33P-ATP radiometric kinase assay), FGFR4. As to conditions: for IC50: 0.2 mg/mL poly[Glu:Tyr] (4:1) substrate, 10 μM final ATP, 2 hours at room temperature; for inhibition of FGFR4 compared with FGFR1 (selectivity): concentration inhibiting FGFR4 versus concentration inhibiting FGFR1, from Table 2 IC50 values. The format is biochemical. As to the method: (§1) The potency of test compounds in inhibiting FGFR1 and FGFR4 was determined. 20 μM of [KKKSPGEYVNIEFG] peptide substrate was added to the reaction buffer (20 mM 4-(2-hydroxyethyl)-1-piperazineethanesulfonic acid (HEPES) (pH 7.5), 10 mM MgCl2, 1 mM egtazic acid (EGTA), 0.02% BRIJ®-35, 0.02 mg/ml bovine serum albumin (BSA), 0.1 mM Na3VO4, 2 mM dithiothreitol (DTT), and 1% DMSO) for FGFR1. 0.2 mg/mL of poly[Glu:Tyr] (4:1) peptide substrate was added to the reaction buffer (20 mM 4-(2-hydroxyethyl)-1-piperazineethanesulfonic acid (HEPES) (pH 7.5), 10 mM MgC12, 1 mM egtazic acid (EGTA), 0.02% BRIJ®-35, 0.02 mg/ml bovine serum albumin (BSA), 0.1 mM Na3VO4, 2 mM dithiothreitol (DTT), and 1% DMSO) for FGFR4. Next, FGFR1 or FGFR4 was added to the substrate solution and gently mixed.
(§2) Test compounds were dissolved in 100% dimethyl sulphoxide (DMSO) and then three-fold serially diluted in DMSO using an epMotion® 5070 robotic pipettor. The diluted test compounds, from 0.00001 M to 5.08053E-10 M, were added to corresponding substrate solutions, and the resulting substrate/compound solutions were incubated for 20 min at room temperature. Radioactive ATP (^33P-ATP) was added to each substrate/compound solution to initiate the kinase activity of FGFR1 or FGFR4 and were incubated for 2 hours at room temperature (10 μM final [ATP]). Reactions were spotted onto P81 ion exchange paper, washed to remove excess radiolabeled ATP and kinase activity determined by quantification of radioactive spots.
(§3) The half maximal inhibitory concentration (IC50) values for FGFR1 and FGFR4 were determined for each compound assayed and are shown in Table 2.

The next experiment deals with FGFR1 (Homo sapiens, UniProt P11362). Description: FGFR inhibition assay (33P-ATP radiometric kinase assay), FGFR1. Type of experiment: biochemical. To be noted: 20 μM KKKSPGEYVNIEFG peptide substrate, 10 μM final ATP, 2 hours at room temperature. As to the method: as §1, §2, §3
Chain of FGFR1 (P11362 22-822): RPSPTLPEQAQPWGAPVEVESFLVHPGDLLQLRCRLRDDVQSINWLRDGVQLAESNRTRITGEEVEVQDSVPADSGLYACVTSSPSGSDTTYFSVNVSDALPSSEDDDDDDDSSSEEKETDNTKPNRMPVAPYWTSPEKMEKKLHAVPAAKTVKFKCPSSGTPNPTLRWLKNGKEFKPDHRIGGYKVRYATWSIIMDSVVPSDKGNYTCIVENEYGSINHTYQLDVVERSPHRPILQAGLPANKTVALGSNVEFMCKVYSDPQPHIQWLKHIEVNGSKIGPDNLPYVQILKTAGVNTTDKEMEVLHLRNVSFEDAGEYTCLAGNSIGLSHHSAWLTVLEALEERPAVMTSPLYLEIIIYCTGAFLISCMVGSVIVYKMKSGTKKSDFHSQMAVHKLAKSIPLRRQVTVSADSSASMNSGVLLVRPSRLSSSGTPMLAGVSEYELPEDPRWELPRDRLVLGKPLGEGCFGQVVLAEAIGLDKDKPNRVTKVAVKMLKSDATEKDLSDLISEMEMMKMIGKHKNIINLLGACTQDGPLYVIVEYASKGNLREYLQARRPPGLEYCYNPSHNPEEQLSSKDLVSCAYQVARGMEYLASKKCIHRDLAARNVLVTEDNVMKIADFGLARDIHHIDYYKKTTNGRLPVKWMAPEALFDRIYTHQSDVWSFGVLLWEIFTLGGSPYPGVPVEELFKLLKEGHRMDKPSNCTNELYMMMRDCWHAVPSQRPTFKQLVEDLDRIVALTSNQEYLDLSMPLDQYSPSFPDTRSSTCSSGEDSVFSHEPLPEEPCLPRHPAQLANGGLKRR

Chain of FGFR4 (P22455 22-802): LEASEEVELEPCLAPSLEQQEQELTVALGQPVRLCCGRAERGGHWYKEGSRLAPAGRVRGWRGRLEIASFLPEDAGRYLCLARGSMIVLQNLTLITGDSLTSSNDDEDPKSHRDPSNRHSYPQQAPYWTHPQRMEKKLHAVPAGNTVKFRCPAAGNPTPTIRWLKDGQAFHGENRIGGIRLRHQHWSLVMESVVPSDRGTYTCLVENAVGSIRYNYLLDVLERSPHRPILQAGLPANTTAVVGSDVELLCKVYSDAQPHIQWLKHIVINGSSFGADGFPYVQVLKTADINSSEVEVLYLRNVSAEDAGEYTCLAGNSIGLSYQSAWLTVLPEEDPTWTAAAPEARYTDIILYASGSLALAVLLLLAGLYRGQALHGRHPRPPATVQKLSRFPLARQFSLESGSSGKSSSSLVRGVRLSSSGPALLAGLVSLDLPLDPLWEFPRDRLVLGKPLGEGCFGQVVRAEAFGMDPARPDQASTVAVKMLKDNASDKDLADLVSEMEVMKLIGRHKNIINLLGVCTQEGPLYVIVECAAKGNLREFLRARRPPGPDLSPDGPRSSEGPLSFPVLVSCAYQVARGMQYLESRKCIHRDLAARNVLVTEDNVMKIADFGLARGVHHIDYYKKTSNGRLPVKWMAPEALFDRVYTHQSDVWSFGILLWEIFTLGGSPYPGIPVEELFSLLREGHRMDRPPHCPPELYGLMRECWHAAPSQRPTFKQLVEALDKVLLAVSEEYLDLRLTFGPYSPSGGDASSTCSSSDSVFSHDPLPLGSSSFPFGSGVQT

Consider `COc1cc(OC)c(F)c(COc2cnc(NC(=O)N3CCCc4ccc(C=O)nc43)nc2)c1F` [Example 1, N-(5-((2,6-difluoro-3,5-dimethoxybenzyl)oxy)pyrimidin-2-yl)-7-formyl-3,4-dihydro-1,8-naphthyridine-1(2H)-carboxamide], for which the half-maximal inhibitory concentration (IC50) came to 0.8 nM against FGFR4 and 5600 nM against FGFR1. Also, the “inhibition of FGFR4 compared with FGFR1 (selectivity)” value at FGFR4 was “dramatically lower concentration”.
The matching figures for `COc1cc(OC)c(F)c(COc2ccc(NC(=O)N3CCCc4ccc(C=O)nc43)nc2)c1F` [Example 2, N-(5-((2,6-difluoro-3,5-dimethoxybenzyl)oxy)pyridin-2-yl)-7-formyl-3,4-dihydro-1,8-naphthyridine-1(2H)-carboxamide]: 5.9 nM, over 10000 nM and “dramatically lower concentration”.
On to `COc1cc(OC)c(F)c(COc2cnc(NC(=O)N3CCCc4cc(CN5CCN(C)CC5=O)c(C=O)nc43)nc2)c1F` [Example 3, N-(5-((2,6-difluoro-3,5-dimethoxybenzyl)oxy)pyrimidin-2-yl)-7-formyl-6-((4-methyl-2-oxopiperazin-1-yl)methyl)-3,4-dihydro-1,8-naphthyridine-1(2H)-carboxamide], for which the half-inhibitory concentration (IC50) on FGFR4 is under 0.5 nM; against FGFR1, 140 nM.
The matching figures for `COc1cc(OC)c(F)c(COc2cnc(NC(=O)N3CCCc4c(C)cc(C=O)nc43)nc2)c1F` [Example 5, N-(5-((2,6-difluoro-3,5-dimethoxybenzyl)oxy)pyrimidin-2-yl)-7-formyl-5-methyl-3,4-dihydro-1,8-naphthyridine-1(2H)-carboxamide]: 1.9 nM and 130 nM.
The matching figures for `COc1cc(OC)c(F)c(CCc2cnc(NC(=O)N3CCCc4ccc(C=O)nc43)nc2)c1F` [Example 6, N-(5-(2,6-difluoro-3,5-dimethoxyphenethyl)pyrimidin-2-yl)-7-formyl-3,4-dihydro-1,8-naphthyridine-1(2H)-carboxamide]: 1 nM and 63 nM.
Take `COc1cc(OC)c(F)c(/C=C/c2cnc(NC(=O)N3CCCc4ccc(C=O)nc43)nc2)c1F` [Example 7, (E)-N-(5-(2,6-difluoro-3,5-dimethoxystyryl)pyrimidin-2-yl)-7-formyl-3,4-dihydro-1,8-naphthyridine-1(2H)-carboxamide]: the half-inhibitory concentration (IC50) at FGFR4 amounted to 0.9 nM; against FGFR1, 1000 nM.
The matching figures for `COc1cc(OC)c(F)c(C#Cc2cnc(NC(=O)N3CCCc4ccc(C=O)nc43)nc2)c1F` [Example 8, N-(5-((2,6-difluoro-3,5-dimethoxyphenyl)ethynyl)pyrimidin-2-yl)-7-formyl-3,4-dihydro-1,8-naphthyridine-1(211)-carboxamide]: 2.5 nM and 330 nM.

As usually defined, the IC50 is the concentration that inhibits the measured activity by half.

The record behind these values is US20220362245A1, “COMPOUNDS FOR INHIBITING FGFR4” (Terns Pharmaceuticals, Inc., priority 2019, published 2022).
